Test results published in ChEMBL document CHEMBL5303573, “Mapping human microbiome drug metabolism by gut bacteria and their genes” (Nature, 2019).

Key:
[1] = The drug is tested on Clostridium ramosum strain: DSM1402 for biotransformation. The drug concentrations were measured before and after a 12-h incubation by liquid-chromatography-coupled mass spectrometry (LC–MS); details: thomasclavelia ramosa, 2 µM
[2] = parabacteroides distasonis, 12 h, 2 µM
Description: The drug is tested on Parabacteroides distasonis strain: ATCC8503 for biotransformation. The drug concentrations were measured before and after a 12-h incubation by liquid-chromatography-coupled mass spectrometry (LC–MS)

[3] = The drug is tested on Bifidobacterium longum subsp. Infantis strain: CCUG52486 for biotransformation. The drug concentrations were measured before and after a 12-h incubation by liquid-chromatography-coupled mass spectrometry (LC–MS); details: 2 µM
[4] = The drug is tested on Ruminococcus torques strain: ATCC27756 for biotransformation. The drug concentrations were measured before and after a 12-h incubation by liquid-chromatography-coupled mass spectrometry (LC–MS); format: ADME; design: dose 2 uM, timepoint 0 vs 12 hours; details: 2 µM
[5] = bifidobacterium adolescentis, 12 h, 2 µM
Description: The drug is tested on Bifidobacterium adolescentis strain: ATCC 15703 for biotransformation. The drug concentrations were measured before and after a 12-h incubation by liquid-chromatography-coupled mass spectrometry (LC–MS)

[6] = The drug is tested on Clostridium scindens strain: ATCC35704 for biotransformation. The drug concentrations were measured before and after a 12-h incubation by liquid-chromatography-coupled mass spectrometry (LC–MS); details: 2 µM
[7] = The drug is tested on Blautia hansenii strain: DSM20583 for biotransformation. The drug concentrations were measured before and after a 12-h incubation by liquid-chromatography-coupled mass spectrometry (LC–MS); details: 2 µM
[8] = parabacteroides johnsonii, 12 h, 2 µM
Description: The drug is tested on Parabacteroides johnsonii strain: DSM18315 for biotransformation. The drug concentrations were measured before and after a 12-h incubation by liquid-chromatography-coupled mass spectrometry (LC–MS)

[9] = The drug is tested on Collinsella aerofaciens strain: ATCC25986 for biotransformation. The drug concentrations were measured before and after a 12-h incubation by liquid-chromatography-coupled mass spectrometry (LC–MS); details: 2 µM
[10] = The drug is tested on Enterobacter cancerogenus strain: ATCC35316 for biotransformation. The drug concentrations were measured before and after a 12-h incubation by liquid-chromatography-coupled mass spectrometry (LC–MS); details: 2 µM
[11] = enterocloster bolteae, 12 h, 2 µM
Description: The drug is tested on Clostridium bolteae strain: ATCCBAA-613 for biotransformation. The drug concentrations were measured before and after a 12-h incubation by liquid-chromatography-coupled mass spectrometry (LC–MS)

[12] = The drug is tested on Bacteroides pectinophilus strain: ATCC43243 for biotransformation. The drug concentrations were measured before and after a 12-h incubation by liquid-chromatography-coupled mass spectrometry (LC–MS); details: 2 µM
[13] = bacteroides thetaiotaomicron, 12 h, 2 µM
Description: The drug is tested on Bacteroides thetaiotaomicron strain: VPI-5482 for biotransformation. The drug concentrations were measured before and after a 12-h incubation by liquid-chromatography-coupled mass spectrometry (LC–MS)

[14] = The drug is tested on Clostridium symbiosum strain: ATCC14940 for biotransformation. The drug concentrations were measured before and after a 12-h incubation by liquid-chromatography-coupled mass spectrometry (LC–MS); details: 2 µM
[15] = The drug is tested on Eubacterium hallii strain: DSM3353 for biotransformation. The drug concentrations were measured before and after a 12-h incubation by liquid-chromatography-coupled mass spectrometry (LC–MS); details: anaerobutyricum hallii, 2 µM
[16] = bacteroides fragilis, 12 h, 2 µM
Description: The drug is tested on Bacteroides fragilis strain: 3397 (T10) for biotransformation. The drug concentrations were measured before and after a 12-h incubation by liquid-chromatography-coupled mass spectrometry (LC–MS)

[17] = The drug is tested on Providencia rettgeri strain: DSM1131 for biotransformation. The drug concentrations were measured before and after a 12-h incubation by liquid-chromatography-coupled mass spectrometry (LC–MS); format: ADME; design: dose 2 uM, timepoint 0 vs 12 hours; details: 2 µM
[18] = The drug is tested on Providencia stuartii strain: ATCC25827 for biotransformation. The drug concentrations were measured before and after a 12-h incubation by liquid-chromatography-coupled mass spectrometry (LC–MS); details: 2 µM
[19] = The drug is tested on Bacteroides sp. WH2 strain: WH2 for biotransformation. The drug concentrations were measured before and after a 12-h incubation by liquid-chromatography-coupled mass spectrometry (LC–MS); details: bacteroides sp. wh2, 12 h, 2 µM
[20] = The drug is tested on Escherichia coli strain: BW25113 for biotransformation. The drug concentrations were measured before and after a 12-h incubation by liquid-chromatography-coupled mass spectrometry (LC–MS); details: 2 µM

Row | Structure (SMILES) | Bacterial Biotransformation [1] | Bacterial Biotransformation [2] | Bacterial Biotransformation [3] | Bacterial Biotransformation [4] | Bacterial Biotransformation [5] | Bacterial Biotransformation [6] | Bacterial Biotransformation [7] | Bacterial Biotransformation [8] | Bacterial Biotransformation [9] | Bacterial Biotransformation [10] | Bacterial Biotransformation [11] | Bacterial Biotransformation [12] | Bacterial Biotransformation [13] | Bacterial Biotransformation [14] | Bacterial Biotransformation [15] | Bacterial Biotransformation [16] | Bacterial Biotransformation [17] | Bacterial Biotransformation [18] | Bacterial Biotransformation [19] | Bacterial Biotransformation [20]
1 | CSc1ccc2c(c1)C(N1CCN(C)CC1)Cc1ccccc1S2.O=C(O)/C=C\C(=O)O (stereo not drawn) | Compound NOT metabolized | Compound metabolized | Compound NOT metabolized | Compound NOT metabolized | Compound NOT metabolized | Compound metabolized | Compound NOT metabolized | Compound metabolized | Compound NOT metabolized | Compound NOT metabolized | Compound NOT metabolized | Compound NOT metabolized | Compound NOT metabolized | Compound NOT metabolized | Compound NOT metabolized | Compound NOT metabolized | Compound NOT metabolized | Compound NOT metabolized | Compound NOT metabolized | –
2 | O=C1CN2Cc3c(ccc(Cl)c3Cl)N=C2N1 [ANAGRELIDE] | Compound NOT metabolized | Compound NOT metabolized | – | Compound NOT metabolized | Compound NOT metabolized | Compound NOT metabolized | Compound metabolized | Compound metabolized | Compound NOT metabolized | Compound NOT metabolized | Compound NOT metabolized | Compound NOT metabolized | Compound NOT metabolized | Compound NOT metabolized | Compound NOT metabolized | Compound NOT metabolized | Compound NOT metabolized | Compound NOT metabolized | Compound NOT metabolized | –
3 | CC(NC(C)(C)C)C(=O)c1cccc(Cl)c1 (stereo not drawn) [BUPROPION] | Compound NOT metabolized | Compound NOT metabolized | – | Compound NOT metabolized | – | Compound NOT metabolized | Compound NOT metabolized | Compound NOT metabolized | – | Compound NOT metabolized | Compound NOT metabolized | – | Compound NOT metabolized | – | Compound NOT metabolized | Compound NOT metabolized | – | – | Compound NOT metabolized | Compound metabolized
4 | CN(C)CCOC(c1ccc(Cl)cc1)c1ccccn1.O=C(O)/C=C\C(=O)O (stereo not drawn) [CARBINOXAMINE MALEATE] | Compound NOT metabolized | Compound NOT metabolized | Compound NOT metabolized | Compound NOT metabolized | Compound NOT metabolized | Compound NOT metabolized | Compound NOT metabolized | Compound NOT metabolized | Compound NOT metabolized | Compound NOT metabolized | Compound NOT metabolized | Compound NOT metabolized | Compound NOT metabolized | Compound NOT metabolized | Compound NOT metabolized | Compound NOT metabolized | Compound NOT metabolized | Compound NOT metabolized | Compound NOT metabolized | –
5 | CCCC(C)(COC(N)=O)COC(=O)NC(C)C (stereo not drawn) [CARISOPRODOL] | Compound NOT metabolized | Compound metabolized | Compound NOT metabolized | Compound NOT metabolized | – | Compound NOT metabolized | Compound metabolized | – | Compound metabolized | Compound NOT metabolized | Compound NOT metabolized | Compound metabolized | Compound metabolized | Compound NOT metabolized | Compound NOT metabolized | Compound metabolized | – | Compound NOT metabolized | Compound NOT metabolized | Compound NOT metabolized
6 | CN1C(=O)CCS(=O)(=O)C1c1ccc(Cl)cc1 (stereo not drawn) [CHLORMEZANONE] | Compound NOT metabolized | Compound NOT metabolized | Compound NOT metabolized | Compound NOT metabolized | Compound NOT metabolized | Compound NOT metabolized | Compound metabolized | – | Compound NOT metabolized | Compound NOT metabolized | Compound NOT metabolized | Compound NOT metabolized | Compound NOT metabolized | Compound NOT metabolized | Compound NOT metabolized | Compound NOT metabolized | – | Compound NOT metabolized | – | Compound NOT metabolized
7 | Clc1ccc(Cn2c(CN3CCCC3)nc3ccccc32)cc1 [CLEMIZOLE] | Compound NOT metabolized | Compound NOT metabolized | Compound NOT metabolized | Compound NOT metabolized | Compound NOT metabolized | Compound NOT metabolized | Compound metabolized | Compound NOT metabolized | Compound NOT metabolized | Compound NOT metabolized | Compound NOT metabolized | Compound NOT metabolized | Compound NOT metabolized | Compound NOT metabolized | Compound NOT metabolized | Compound NOT metabolized | Compound NOT metabolized | Compound NOT metabolized | Compound NOT metabolized | –
8 | CN(C)CCC=C1c2ccccc2C=Cc2ccccc21 [CYCLOBENZAPRINE] | Compound NOT metabolized | Compound NOT metabolized | Compound NOT metabolized | Compound NOT metabolized | Compound NOT metabolized | Compound NOT metabolized | Compound metabolized | – | Compound NOT metabolized | Compound NOT metabolized | Compound NOT metabolized | – | Compound NOT metabolized | Compound NOT metabolized | Compound NOT metabolized | Compound NOT metabolized | – | Compound NOT metabolized | Compound NOT metabolized | Compound NOT metabolized
9 | CCS(=O)(=O)CCn1c([N+](=O)[O-])cnc1C [TINIDAZOLE] | Compound metabolized | Compound metabolized | Compound metabolized | Compound metabolized | Compound metabolized | Compound metabolized | Compound metabolized | Compound metabolized | Compound metabolized | Compound NOT metabolized | Compound metabolized | Compound NOT metabolized | Compound metabolized | Compound metabolized | Compound metabolized | Compound metabolized | Compound NOT metabolized | Compound NOT metabolized | Compound metabolized | –
